Measurements as given in ChEMBL document CHEMBL5058564, “EUbOPEN Chemogenomics Library 2 (Incucyte)” (2022).

Tests used:
Format in all cases: toxicity, cell-based
Fibroblast = assay: Incucyte cell viability with human fibroblast; details: 10 µM, compound concentration 10 uM
HEK-293T = assay: Incucyte cell viability with HEK293T; details: human, 10 µM, compound concentration 10 uM
U2OS = assay: Incucyte cell viability with U2OS; details: human, 10 µM, compound concentration 10 uM
[1] = 0 h, replicate number 1, timepoint 0 hours
[2] = 0 h, replicate number 2, timepoint 0 hours
[3] = 6 h, replicate number 1, timepoint 6 hours
[4] = 12 h, replicate number 1, timepoint 12 hours
[5] = 18 h, replicate number 1, timepoint 18 hours
[6] = 24 h, replicate number 1, timepoint 24 hours
[7] = 6 h, replicate number 2, timepoint 6 hours
[8] = 18 h, replicate number 2, timepoint 18 hours
[9] = 12 h, replicate number 2, timepoint 12 hours
[10] = 24 h, replicate number 2, timepoint 24 hours
Further: unitless GR value; below 1 slowed growth and below 0 cell loss.

Row | SMILES | Growth Rate (Fibroblast; [1]) | Growth Rate (Fibroblast; [2]) | Growth Rate (Fibroblast; [3]) | Growth Rate (Fibroblast; [4]) | Growth Rate (Fibroblast; [5]) | Growth Rate (Fibroblast; [6]) | Growth Rate (HEK-293T; [1]) | Growth Rate (HEK-293T; [3]) | Growth Rate (HEK-293T; [4]) | Growth Rate (HEK-293T; [5]) | Growth Rate (HEK-293T; [6]) | Growth Rate (U2OS; [1]) | Growth Rate (U2OS; [2]) | Growth Rate (U2OS; [8]) | Growth Rate (HEK-293T; [2]) | Growth Rate (HEK-293T; [8]) | Growth Rate (HEK-293T; [10]) | Growth Rate (U2OS; [3]) | Growth Rate (U2OS; [4]) | Growth Rate (U2OS; [9]) | also measured
1 | CCCn1c(=O)c2[nH]c(C3CCCC3)nc2n(CCC)c1=O [1,3-DIPROPYL-8-CYCLOPENTYLXANTHINE [DPCPX]] | 0.19 | 0.38 | -0.31 | 0.03 | -0.16 | -0.1 | 0.58 | 0.57 | 0.84 | 0.81 | 0.72 | -0.53 | -1 | 0.95 | – | – | – | – | – | – | Growth Rate (HEK-293T; [7]): 0.79
2 | CCC(=O)OCC(=O)[C@@]1(OC(=O)CC)[C@@H](C)C[C@H]2[C@@H]3CCC4=CC(=O)C=C[C@]4(C)[C@@]3(Cl)[C@@H](O)C[C@@]21C [BECLOMETHASONE DIPROPIONATE] | -0.17 | -0.56 | – | – | – | – | 0.14 | 0.91 | 0.61 | 0.62 | 0.65 | -0.25 | 0.62 | 0.81 | -0.33 | 0.78 | 0.83 | 0.73 | 0.81 | 0.85 | Growth Rate (HEK-293T; [9]): 0.8; Growth Rate (U2OS; [5]): 0.8; Growth Rate (U2OS; [6]): 0.78; Growth Rate (U2OS; [10]): 0.9
3 | Cl.O=C(O)c1cc(-c2ccc(C3CCNCC3)cc2)c2ccc(-c3ccc(C(F)(F)F)cc3)cc2c1 | -0.16 | -0.95 | -0.7 | -0.12 | -0.01 | 0.06 | -0.99 | – | 0.71 | 0.29 | 0.2 | – | – | 0.48 | -0.98 | 0.68 | 0.49 | 0.77 | 0.79 | 0.48 | Growth Rate (Fibroblast; [7]): 0.67; Growth Rate (Fibroblast; [9]): 0.42; Growth Rate (Fibroblast; [8]): 0.43; Growth Rate (Fibroblast; [10]): 0.23; Growth Rate (U2OS; [7]): 0.7; Growth Rate (U2OS; [5]): 0.6; Growth Rate (U2OS; [6]): 0.6; Growth Rate (U2OS; [10]): 0.44
